Test results reported in patent US4517202A, “Prostaglandin analogues” (May & Baker Limited, priority 1982, dated 1985).
≈ marks a conversion by molar mass, not a printed value. Where two headings read alike, the source gives them in different places. Values belong to the compound of their own block, whether it stands above or below them.

Tests used:
[1] = system: collagen-induced β-thromboglobulin release; test: inhibition of collagen-induced β-thromboglobulin release in vitro in human blood; format: cell-based; conditions: read-out: ED50 (concentration which produced 50% inhibition of the β-thromboglobulin release)
[2] = system: artery and some other kinds of smooth muscle; conditions: cited from earlier work
blood platelets = conditions: cited from earlier work
[3] = isomerisation of (Z)-isomer at ambient temperature; format: physicochemical
[4] = system: arachidonic acid-induced blood platelet aggregation of the human; conditions: human platelets; cited from earlier work
[5] = cited from earlier work
diastolic blood pressure = test: fall in diastolic blood pressure in anaesthetised rats; format: in vivo; conditions: rats anaesthetised with pentobarbitone; intravenously at a rate of 45 μg/kg animal body weight
Experimental: In other laboratory tests, compound B produced a 25% fall in diastolic blood pressure in rats (anaesthetised with pentobarbitone) when administered intravenously at a rate of 45 μg/kg animal body weight.

Compound: CCCCCC(O)/C=C/[C@H]1CC[C@@H]2C(=O)/C(=C\CCCC(=O)O)C[C@@H]21 (relative stereo) [Compound F, (±)-(5Z,13E)-(9S), [mixture of (15R) and (15S)]-6a-oxo-6,9-methano-15-hydroxyprosta-5,13-dienoic acid]
IC50 [1]: < 17 µg/mL

Compound: CCCCC[C@H](O)/C=C/[C@H]1O[C@H]2C[C@H](O2)[C@@H]1C/C=C\CCCC(=O)O [thromboxane A2]
activity on the artery and some other kinds of smooth muscle [2]: contracting activity | aggregating activity on blood platelets (blood platelets): aggregating activity

Compound: O=C(O)CCC/C=C1/C[C@H]2[C@H](CC[C@@H]2/C=C/[C@@H](O)C2CCCCC2)C1=O (relative stereo) [(Z)-isomer]
isomerisation back to the (E)-isomer [3]: slowly isomerised back to the (E)-isomer

Compound: CCCCC[C@H](O)/C=C/[C@@H]1[C@H]2C/C(=C/CCCC(=O)O)O[C@H]2C[C@H]1O [PGI2, (5Z,13E)-(9S,11R,15S)-6,9-epoxy-11,15-dihydroxyprosta-5,13-dienoic acid]
inhibition of arachidonic acid-induced blood platelet aggregation [4]: strongly inhibits | activity on the artery and some other kinds of smooth muscle [2]: strong relaxing activity | time to deactivation in a buffer solution ([5]; pH 7.6, 22° C.): 20 min | time to deactivation in a buffer solution ([5]; pH 7.6, 37° C.): 10 min

Compound: O=C(O)CCC/C=C1\C[C@H]2[C@H](CC[C@@H]2/C=C/C(O)C2CCCCC2)C1=O (relative stereo) [Compound I, (±)-(5E,13E)-(9S),[mixture of (15R) and (15S)]-6a-oxo-6,9-methano-15-cyclohexyl-15-hydroxy-16,17,18,19,20-pentanorprosta-5,13-dienoic acid]
IC50 [1]: < 17 µg/mL

Now from value to compound, other results behind:

IC50 [1]: 5 µg/mL (≈ 13.9 µM)
Compound: O=C(O)CCC/C=C1\C[C@H]2[C@H](CC[C@@H]2/C=C/[C@@H](O)C2CCCCC2)C1=O (relative stereo) [Compound B, (±)-(5E,13E)-(9S,15S)-6a-oxo-6,9-methano-15-cyclohexyl-15-hydroxy-16,17,18,19,20-pentanorprosta-5,13-dienoic acid]
fall in diastolic blood pressure (diastolic blood pressure): 25%

IC50 [1]: 34 µg/mL
Compound: CCCCCC(O)/C=C/[C@H]1CC[C@@H]2C(=O)/C(=C/CCCC(=O)O)C[C@@H]21 (relative stereo) [Compound E, (±)-(5E,13E)-(9S), [mixture of (15R) and (15S)]-6a-oxo-6,9-methano-15-hydroxyprosta-5,13-dienoic acid]
